Reference: paper PMC8284454, “In Vitro Profiling of Antitubercular Compounds by Rapid, Efficient, and Nondestructive Assays Using Autoluminescent Mycobacterium tuberculosis” (Antimicrobial Agents and Chemotherapy, 2021)
Converted amounts (≈) assume the structure as drawn. “Also recorded” adds a separate entry of the source. Like-named read-outs stand apart in the source and are kept apart here. Marks after values point to notes of the source that are not given here. *1 amine or outer side, *2 acyl side, *3 side chain or, on linkers, in order; H or OH if unused. Where a SMILES comes first, the peptide text is derived from it. Bridges are numbered along the chain shown (N, C = ends). [ ]: non-standard residue; d: D form. The star is where a group is joined. Phe(3R-OH) = O=C([C@@H](N[*:1])[C@H](O[*:3])c1ccccc1)[*:2]; NMeTrp(4-OMe) = CN[C@@H](Cc1c[nH]c2cccc(OC)c12)C(=O)O; NMeaIle = CC[C@@H](C)[C@H](NC)C(=O)O; NMe2Val = CC(C)[C@@H](C(=O)*)N(C)C; NMeT = CN[C@H](C(=O)O)[C@@H](C)O; NMeL = CN[C@@H](CC(C)C)C(=O)O; NMeV = CN[C@H](C(=O)O)C(C)C

Tests used:
[1] = tested on: J774-internalized M. tuberculosis (H37Rv); test: intracellular activity by luminescence (EC90); assay type: cell-based, Mycobacterium tuberculosis; settings: for EC90: RLU; for onset of growth inhibition of internalized M. tuberculosis: early = EC90 obtainable by day 3, late = EC90 obtainable by day 5 or later
[2] = tested on: macrophage-internalized M. tuberculosis; settings: read-out: Literature reported EC90, cited from earlier work
[3] = tested on: M. tuberculosis H37Rv_LuxABCDE; test: luminescence-based MBC assay (LMBCA) / time-kill; assay type: cell-based, Mycobacterium tuberculosis; settings: for MBC: Mycobacterium tuberculosis; for time and/or concentration dependence of bactericidal activity: time-kill curves up to day 21; for change of MBC values over time: over 21 days, luminescence time-kill
[4] = tested on: M. tuberculosis H37Rv_LuxABCDE; test: microbe, parasite or virus in culture; assay type: cell-based, Mycobacterium tuberculosis; settings: day 7, SD from three independent experiments; for MBC: Mycobacterium tuberculosis, read-out: MBC (±SD) via CFU
[5] = tested on: M. tuberculosis H37Rv_LuxABCDE; test: luminescence-based MIC assay (LMICA); settings: 90% reduction of luminescence, 7 days, 7H12 medium; SD from three independent experiments
[6] = tested on: M. tuberculosis H37Rv_LuxABCDE; test: microplate alamarBlue assay (MABA) MIC; settings: 90% reduction of fluorescence, 7 days, 7H12 medium; SD from three independent experiments
[7] = tested on: M. tuberculosis H37Rv_LuxABCDE; test: postantibiotic effect by luminescence (RLU); assay type: cell-based, Mycobacterium tuberculosis; settings: 1.5 log10 RLU increase, 1:10,000-fold dilution
[8] = tested on: M. tuberculosis H37Rv_LuxABCDE; assay type: cell-based, Mycobacterium tuberculosis; settings: 1:10,000-fold dilution
[9] = tested on: J774 infected with M. tuberculosis strain Erdman; settings: read-out: Literature reported EC90; cited from earlier work
[10] = Mycobacterium tuberculosis, H37RV, 72 h, EC90, day 3, J774 macrophages, read-out: Intracellular activity, EC90 (±SD) Day 3
[11] = Mycobacterium tuberculosis, H37RV, 120 h, EC90, day 5, J774 macrophages, read-out: Intracellular activity, EC90 (±SD) Day 5
[12] = Mycobacterium tuberculosis, H37RV, 168 h, EC90, day 7, J774 macrophages, read-out: Intracellular activity, EC90 (±SD) Day 7
[13] = 168 h, day 7, 99% reduction in RLU vs T0, SD from three independent experiments, read-out: MBC (±SD) via luminescence
[14] = 336 h, day 14, 99% reduction in RLU vs T0, read-out: MBC (±SD) by luminescence on day 14
[15] = 504 h, day 21, 99% reduction in RLU vs T0, read-out: MBC (±SD) by luminescence on day 21
[16] = day 7, 99% reduction in RLU vs T0, SD from three independent experiments

Structure (SMILES) | EC90 [1, 10] [µM] | EC90 [1, 11] [µM] | EC90 [1, 12] [µM] | MBC [3, 13] [µM] | MBC [3, 14] [µM] | MBC [3, 15] [µM] | time and/or concentration dependence of bactericidal activity [3] | MBC [4] [µM] | onset of growth inhibition of internalized M. tuberculosis [1] | EC90 ([2]; EC90) [µM] | MIC (±SD) LMICA [5] | MIC (±SD) MABA [6] | MBC (±SD) via luminescence [3, 16] | change of MBC values over time [3] | Toxicity against infected J774, percent inhibition at the highest tested concentration (infected J774; day 7, 50 μM) | other results
NCC[C@H](O)C(=O)N[C@@H]1C[C@H](N)[C@@H](O[C@H]2O[C@H](CN)[C@@H](O)[C@H](O)[C@H]2O)[C@H](O)[C@H]1O[C@H]1O[C@H](CO)[C@@H](O)[C@H](N)[C@H]1O [Amikacin] | > 34 | > 34 | > 34 | – | – | – | – | – | – | – | – | – | – | – | – | inhibition at 34 µM ([1]; Mycobacterium tuberculosis, H37RV, 72 h, day 3, 34 μM, read-out: percent inhibition at the highest tested concentration, intracellular activity Day 3): 4%; inhibition at 34 µM ([1]; Mycobacterium tuberculosis, H37RV, 120 h, day 5, 34 μM, read-out: percent inhibition at the highest tested concentration, intracellular activity Day 5): 34%; inhibition at 34 µM ([1]; Mycobacterium tuberculosis, H37RV, 168 h, day 7, 34 μM, read-out: percent inhibition at the highest tested concentration, intracellular activity Day 7): 49%; EC90 ([2]; EC90, high-content imaging on day 5): > 26 µM
COc1nc2ccc(Br)cc2cc1[C@@H](c1ccccc1)[C@@](O)(CCN(C)C)c1cccc2ccccc12 [Bedaquiline] | 0.89 | 0.29 | 0.22 | 0.13 (≈ 0.0722 µg/mL) | 0.11 (≈ 0.0611 µg/mL) | 0.12 (≈ 0.0667 µg/mL) | primarily concentration dependent | 0.16 (≈ 0.0889 µg/mL) | early growth inhibition | 0.1 | 0.028 (0.01) μM | 0.021 (0.01) μM | – | – | – | Toxicity against infected J774, percent inhibition at the highest tested concentration (infected J774; day 7, 2 μM): 2 (7)* percent
CC(C)/N=c1\cc2n(-c3ccc(Cl)cc3)c3ccccc3nc-2cc1Nc1ccc(Cl)cc1 [Clofazimine] | 19 | 6.69 | 3.7 | 1.81 (≈ 0.857 µg/mL) | 0.82 (≈ 0.388 µg/mL) | 1.01 (≈ 0.478 µg/mL) | both time and concentration dependent | > 4 | early growth inhibition | ~2.1 | – | 0.014 (0.02) μM | 1.8 (0.19) μM | decreased | 50 (45)* percent | –
CC[C@@H](C)[C@@H](C(=O)N[C@@H]1C(=O)N(C)[C@@H]([C@@H](C)O)C(=O)N[C@@H](C(C)C)C(=O)N(C)[C@@H](CC(C)C)C(=O)N[C@@H](C(C)C)C(=O)N(C)[C@@H](C(C)C)C(=O)N(C)[C@@H](Cc2c[nH]c3cccc(OC)c23)C(=O)N[C@@H](C(C)C)C(=O)N[C@@H]([C@H](O)c2ccccc2)C(=O)N[C@@H](C(C)C)C(=O)O[C@@H]1C)N(C)C(=O)[C@@H](NC(=O)[C@H](C(C)C)N(C)C)C(C)C [Ecumicin] (NMe2Val-V[NMeaIle]T[NMeT]V[NMeL]V[NMeV][NMeTrp(4-OMe)]V[Phe(3R-OH)]V; ester 3-C) | – | – | – | – | – | – | mainly time dependent | – | early growth inhibition | – | 0.074 (0.002) μM | 0.081 (0.02) μM | 0.22 (0.1) μM | decreased | – | bactericidal or bacteriostatic activity [3]: strong bactericidal activity; also recorded: classical bactericidal dose response; MBC (±SD) by luminescence on day 14 ([3]; day 14, 99% reduction in RLU vs T0): 0.20 (0.09) µM; MBC (±SD) by luminescence on day 21 ([3]; day 21, 99% reduction in RLU vs T0): 0.12 (0.04) µM; MBC (±SD) via CFU [4]: 0.10 (±0.03) μM; EC90 ([1]; EC90, day 3, J774 macrophages, read-out: Intracellular activity, EC90 (±SD) Day 3): 0.74 µM; EC90 ([1]; EC90, day 5, J774 macrophages, read-out: Intracellular activity, EC90 (±SD) Day 5): 0.57 µM; EC90 ([1]; EC90, day 7, J774 macrophages, read-out: Intracellular activity, EC90 (±SD) Day 7): 0.28 µM; PAE 1× MIC RLU ([7]; 3 h exposure at 1× MIC): 0 h; PAE 10× MIC RLU ([7]; 3 h exposure at 10× MIC): 12 h; PAE 100× MIC RLU ([7]; 3 h exposure at 100× MIC): 96 h; PAE 1× MIC CFU/ml ([8]; 3 h exposure at 1× MIC): 0 h; PAE 10× MIC CFU/ml ([8]; 3 h exposure at 10× MIC): 10 h; PAE 100× MIC CFU/ml ([8]; 3 h exposure at 100× MIC): 80 h; Toxicity against infected J774, percent inhibition at the highest tested concentration (infected J774; day 7, 6.3 μM): 6.3 (11)* percent; EC90 [9]: ~0.12 µM
CC[C@@H](CO)NCCN[C@@H](CC)CO [Ethambutol] | > 50 | 44 | 23.8 | 9.18 (≈ 1.88 µg/mL) | 3.17 (≈ 0.648 µg/mL) | 3.28 (≈ 0.67 µg/mL) | mainly time dependent | 7.9 (≈ 1.61 µg/mL) | late growth inhibition | 16.7 | 1.3 (0.38) μM | 2.0 (0.41) μM | 9.2 (2.7) μM | decreased | 50 (0)* percent | inhibition at 50 µM ([1]; Mycobacterium tuberculosis, H37RV, 72 h, day 3, 50 μM, read-out: percent inhibition at the highest tested concentration, intracellular activity Day 3): 68%
